In US4357341A, “Specific irreversible antagonism of histamine receptors by photoaffinity actuated compounds” (priority 1981, dated 1982):
Read-outs that look alike come from different tables or passages of the source.

What was measured:
[1] = system: smooth muscle of the guinea-pig vas deferens, norepinephrine responses; assay: Norepinephrine-induced contraction of isolated vas deferens (specificity of AAH); assay type: cell-based; conditions: 3×10^-5 M AAH
Experimental: (§1) The tissues were washed every 15 minutes. Resting tension was 200 mg.
(§2) The effects of AAH on the response of the smooth muscle of the guinea-pig vas deferens to several agonists were examined using the following protocols.
(§3) Effect of AAH after photoactivation. While in the organ bath, one tissue of a pair was exposed to AAH for 5 minutes. The preparation was then irradiated with a tungsten-halogen projector lamp (DVY, 650 W, 3400° K., filament ca. 10 cm from the tissue) for 5 minutes. Bath temperature remained at 37° C. during irradiation. At the end of irradiation the tissues were washed twice with fresh Krebs-Kenseleit solution lacking AAH. Concentration-response determinations were begun 10 minutes after irradiation. Contralateral control tissues were irradiated in the absence of AAH and otherwise handled identically. […] Also shown is the time-course of the decline of absorbance at 266 nm. The native spectrum, consisting of a pronounced peak at 266 nm, shoulder at 286 and broad peak at 480-485 nm, was changed by photolysis in a time-dependent manner to one with several smaller peaks and troughs.
(§4) Effect of AAH without photoactivation. Two types of experiments were performed with non-irradiated AAH. In the first type, the test tissue was exposed to AAH for 10 minutes but not irradiated during the latter five minutes; the AAH was washed out before agonist agents were added. […]

[2] = system: smooth muscle of the guinea-pig vas deferens, MgATP responses; assay: MgATP-induced contraction of isolated vas deferens (specificity of AAH); assay type: cell-based; conditions: 3×10^-5 M AAH
Experimental: as §1, §2, §3, §4

[3] = target: T1, histamine receptor (H1), isolated guinea pig vas deferens (Cavia porcellus, UniProt P31389); assay: Histamine-induced contraction of isolated vas deferens in the continual presence of non-irradiated AAH; assay type: cell-based; design: smooth muscle of the guinea-pig vas deferens; from tissue; host or cells: isolated, desheathed vas deferens of adult albino guinea pigs (Hilltop Lab Animals, Scottdale, PA)
T1 sequence (P31389 whole entry): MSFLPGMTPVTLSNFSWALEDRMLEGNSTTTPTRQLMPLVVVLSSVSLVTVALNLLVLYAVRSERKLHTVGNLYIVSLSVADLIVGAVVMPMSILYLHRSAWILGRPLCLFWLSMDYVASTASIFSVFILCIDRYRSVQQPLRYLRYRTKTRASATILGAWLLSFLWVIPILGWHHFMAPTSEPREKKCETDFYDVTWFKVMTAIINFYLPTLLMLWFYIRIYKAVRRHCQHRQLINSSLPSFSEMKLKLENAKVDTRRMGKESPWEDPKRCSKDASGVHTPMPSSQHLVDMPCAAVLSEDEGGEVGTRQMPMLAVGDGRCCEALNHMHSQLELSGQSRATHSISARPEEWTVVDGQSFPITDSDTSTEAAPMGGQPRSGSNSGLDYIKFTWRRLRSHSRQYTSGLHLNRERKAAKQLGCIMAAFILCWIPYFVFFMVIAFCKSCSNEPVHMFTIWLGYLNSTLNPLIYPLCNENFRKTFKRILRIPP
Experimental: as §1, §2
(§5) Effect of AAH without photoactivation. Two types of experiments were performed with non-irradiated AAH. In the first type, the test tissue was exposed to AAH for 10 minutes but not irradiated during the latter five minutes; the AAH was washed out before agonist agents were added. That is, the same schedule as was used above was employed, but the preparations were not irradiated. In the second type of experiment with non-irradiated AAH, the compound was added to the bath 15 minutes before and remained present during the addition of agonists. The contralateral control tissues for these experiments received no treatment.

[4] = target: T1, histamine receptor (H1), isolated guinea pig vas deferens; assay: Histamine-induced contraction of isolated vas deferens after photolysis and washout of AAH; assay type: cell-based; design: smooth muscle of the guinea-pig vas deferens; from tissue; host or cells: isolated, desheathed vas deferens of adult albino guinea pigs (Hilltop Lab Animals, Scottdale, PA)
Experimental: as §1, §2, §3

[5] = Photolysis of AAH (absorbance decline at 266 nm); assay type: physicochemical
Experimental: FIG. 1 is spectra of 3×10^-5 M AAH (dissolved in modified Krebs-Henseleit solution) sampled before (solid line) and 5 minutes (dashed line) and 60 minutes (dotted line) after the beginning of irradiation. The reference cuvette contained modified Krebs-Henseleit solution. The inset illustrates the time-course of decline in absorbance a 266 nm; data points were obtained from scans performed after the irradiation intervals shown.
as §3

[6] = system: smooth muscle of the guinea-pig vas deferens, acetylcholine responses; assay: Acetylcholine-induced contraction of isolated vas deferens (specificity of AAH); assay type: cell-based
Experimental: as §1, §2, §3, §5

[7] = target: T1, histamine receptor (H1), isolated guinea pig vas deferens; assay: Histamine-induced contraction of isolated vas deferens after incubation with non-irradiated AAH and washout; assay type: cell-based; design: smooth muscle of the guinea-pig vas deferens; from tissue; host or cells: isolated, desheathed vas deferens of adult albino guinea pigs (Hilltop Lab Animals, Scottdale, PA); conditions: 3×10^-5 M AAH, 10 min incubation, not photoactivated, washed out
Experimental: as §1, §2, §5

[8] = system: guinea pig vas deferens; assay: Direct contractile effect on isolated vas deferens; assay type: cell-based; conditions: AAH in the concentrations used
Experimental: as §1

[9] = system: smooth muscle of the guinea-pig vas deferens, KCl responses; assay: KCl-induced contraction of isolated vas deferens (specificity of AAH); assay type: cell-based
Experimental: as §1, §2, §3, §5

[10] = target: T1, histamine receptor (H1), isolated guinea pig vas deferens; assay: cell-based; design: Emax: dose or concentration left out as unconfirmed
Experimental: Adult, albino guinea pigs (250-350 g; Hilltop Lab Animals, Scottdale, PA) were killed by a blow to the head. Vasa deferentia were removed, desheathed and mounted in conventional apparatus for the measurement of isometric contractile responses. Each tissue preparation was bathed in a separate glass, water-jacketed organ chamber containing modified Krebs-Henseleit solution (37° C.) for one hour prior to the beginning of the experiment. The tissues were washed every 15 minutes. Resting tension was 200 mg. Agonist agents were added to the bath with stepwise increases in concentration. The agonists were added at 10 minute intervals and the tissues were exposed to each concentration for 2 minutes; the tissues were washed twice with agonist-free Krebs-Henseleit solution, at 5 minute intervals, between agonist additions.
Effect of AAH after irradiation in the presence of histamine receptor ligands. […] AAH was then added to the test tissue, leaving the control exposed only to ligand, and after a 5-minute incubation, both the test and control tissues were irradiated for 5 minutes. Both tissues were washed twice with fresh Krebs-Henseleit solution to remove all agents, and concentration-response determinations were performed 10 minutes after irradiation.

[11] = non-irradiated, continually present
[12] = 3×10^-5 M AAH, non-irradiated, continually present
[13] = 3×10^-6 M AAH, photolyzed, washed out
[14] = 10^-5 M AAH, photolyzed, washed out
[15] = 3×10^-5 M AAH, photoactivated, washed out

## [N-]=[N+]=Nc1ccc(NCCc2c[nH]cn2)c([N+](=O)[O-])c1 [AAH, 4(5)-[2-(4-azido-2-nitroanilino)ethyl]imidazole]
[1]; [11]
  shift of norepinephrine concentration-response curve to the left of control: 5.50 fold
[1]; photoactivated, washed out
  effect on maximum responses or EC50's of NE: no effect on the maximum responses or EC50's
[2]; [11]
  shift of MgATP concentration-response curve to the left of control: 12.89 fold
[2]; photoactivated, washed out
  effect on maximum responses or EC50's of MgATP: no effect on the maximum responses or EC50's
[3]; [12]
  effect on the response to histamine: abolished the response to histamine
[3]; 3×10^-6 M AAH, non-irradiated, continually present
  shift of the histamine concentration-response curve to the left of control: 2.01 fold
[3]; 10^-5 M AAH, non-irradiated, continually present
  shape of histamine concentration-response curve: "bell-shaped" concentration-response curve
[3]; non-irradiated AAH, continually present
  concentration range over which antagonism by AAH was observed: 10 fold
[3]; not irradiated
  reversibility of antagonism of histamine by non-photolyzed AAH: reversible if not irradiated
[4]; 3×10^-5 M AAH, photolyzed
  reversal of antagonism by repeated washing: not reversed by repeated washing
[4]; 3×10^-5 M AAH, photolyzed, washed out
  effect on the response of the tissues to histamine: abolished the response of the tissues to histamine
[4]; [13]
  effect on maximum response to histamine: small but significant decrease in the maximum response to histamine
  shift of the histamine concentration-response curve to the left of control: 1.89 fold
[4]; [14]
  effect on the response of the tissues to histamine: intermediate and irreversible antagonism
  shape of histamine concentration-response curve: "bell"-shaped
[4]; photolyzed AAH
  concentration range over which antagonism by AAH occurred: 10 fold
[5]; 3×10^-5 M AAH, modified Krebs-Henseleit solution, tungsten-halogen lamp 650 W, read-out: t1/2 of first-order absorbance reduction at 266 nm caused by photolysis
  half-life at 30 µM: 3.8 min
[5]; 5 min irradiation, 266 nm
  percent of the maximum absorbance reduction produced by the 5-minute photoaffinity labeling period: ca. 62%
[6]; [12]
  effect on concentration-response relationship for ACh: no significant effect on concentration-response relationships
[6]; [15]
  effect on the maximum response to ACh: no effect on the maximum response to ACh
  shift of the ACh concentration-response curve to the right of control: 3.07 fold
[6]; photolyzed AAH
  responses to acetylcholine after photolysis of AAH: only slightly reduced
[7]
  residual effect on responses to histamine: no residual effect on responses to histamine
[8]
  contraction upon addition to the organ bath: did not cause a contraction
[9]; [12]
  effect on concentration-response relationship for KCl: no significant effect on concentration-response relationships
[9]; [15]
  effect on maximum responses or EC50's of KCl: no effect on the maximum responses or EC50's
[9]; Cavia porcellus, light or radiation study, read-out: EC50 of KCl, AAH, 3×10^-5 M AAH, non-irradiated, continually present
  EC50: 15.3 mM
[9]; Cavia porcellus, light or radiation study, read-out: EC50 of KCl, AAH, 3×10^-5 M AAH, photoactivated, washed out
  EC50: 19.5 mM

## [Cl-].[K+] [KCl, reference compound]
[9]; irradiated control without AAH, read-out: EC50 of KCl, control
  EC50: 20 mM
[9]; non-irradiated control without AAH, read-out: EC50 of KCl, control
  EC50: 25 mM

## NCCc1c[nH]cn1 [histamine, 2-(4-imidazolyl)ethylamine]
[10]; 3×10^-4 M histamine with AAH, n=4
  protection against AAH-induced antagonism when present during photoactivation of AAH: no protective effect
[10]; read-out: response of the tissue, % of maximum response to histamine
  Emax: 90 to 100%
